From ChEMBL document CHEMBL3507680, “University of Dundee, Gates Library screen for HepG2 cell viability”

Assay: Human HepG2 cell viability assay in 384 well format
Type: toxicity, cell-based
Design: dose 125 nL, time 70.5 hour; concentration not given beside the values
Details: HepG2 cells, read-out: Inhibition

SMILES | cytotoxicity at 70.5 h [%]
CCC(C)NC(=O)Cn1ccc2c(C)nn(CC)c2c1=O (centres undefined) | 30.5
CCn1nc(C)c2ccn(CC(=O)NC3CC3)c(=O)c21 | -9.78
COc1cc(N2C[C@H]3CN(CC(=O)N(C)C)C(=O)[C@H]3C2)ncn1 | 28.2
CCN1CCC2(CC1)CN(CCO)c1ccccc12 | 21.2
O=C(Cc1cccs1)NCC1COCc2c(-c3ccoc3)nnn2C1 (centres undefined) | -9.17
CC1c2ncc(COCC3CCCC3)n2CCN1S(=O)(=O)N(C)C (centres undefined) | 0.773
O=c1ccc2c(n1Cc1cccnc1)CCC(NCc1cccnc1)C2 (centres undefined) | -0.912
CS(=O)(=O)N1C[C@H](C(=O)Nc2cnccn2)C[C@H]2OCC[C@H]21 | 24.9
CCn1cc2c(n1)C(COCC1CC1)CN(C(=O)c1cnoc1C)C2 (centres undefined) | -12.8
COCc1cnc2n1CCN(S(=O)(=O)N(C)C)C2C (centres undefined) | -15.1
CCOCC1COCCC12CCN(C(=O)CS(C)(=O)=O)CC2 (centres undefined) | -4.64
Cn1c(C(=O)NC2CC2)nc2c1CCN(c1ncccn1)C2 | -4.38
COCC(=O)N1CCC2(CCC2NS(=O)(=O)c2ccccc2)CC1 (centres undefined) | 28.8
CC(C)CNC(=O)[C@H]1C[C@@H]2CN(C(=O)NCC3CCCCC3)C[C@H]1O2 | -2.13
COC[C@@H]1CN(C)C(=O)[C@@H]2CCN(Cc3ccco3)CC[C@H]12 | -4.9
CC(C)n1ccc(-c2cc(C(=O)NC3CC3)c3ccccn23)n1 | 21.3
CC(C)N(C)[C@@H]1CCN(Cc2ccco2)[C@H]1Cc1ccccc1 | 38.2
O=C(NCCN1CCCC1)c1nc2c(o1)CN(c1ncccn1)C2 | -1.07
CCc1cnc(N2CCC3(CCN(CC)C3=O)CC2)nc1 | -4.14
CCCNC(=O)c1cc(-c2ccn(C(C)C)n2)n2ccccc12 | -7.13
CCCNC(=O)c1nc2c(o1)CN(c1ncccn1)C2 | -2.16
CN(C)C(=O)[C@H]1CC[C@@H]2[C@@H](CCN2C(=O)N(C)C)O1 | 1.41
CC(=O)NCC(=O)N1Cc2cc(-c3cc[nH]n3)ccc2C1c1cnco1 (centres undefined) | -2.28
CCN(C)C(=O)c1ccnn1-c1ccc2ccccn12 | 1.76
O=C(NC1CC1)[C@H]1CC[C@@H]2[C@@H](CCN2Cc2ccsc2)O1 | -10.2
O=C(c1ccnnc1)N1CCO[C@H]2[C@@H](OCc3cccnc3)CC[C@@H]21 | -6.56
CC(C)CNc1nc2c(cc1C(=O)NCC1CC1)CCNCC2 | 24.9

SMILES | cytotoxicity at 70.5 h [%]
O=C(c1cnccn1)N1CCN2C[C@H](OCC3CC3)C[C@H]2C1 | 4.98
CCN(C)c1ncnc2c1CCN(C(=O)[C@H]1CCCO1)CC2 | -9.23
CN(C)C(=O)N1C[C@@H]2COC[C@]2(c2nnc(C3CC3)o2)C1 | -10.1
Cc1ccoc1C(=O)N1CC[C@@H]2O[C@@H](C)C[C@H]2C1 | 0.684
Cc1ncoc1C(=O)N1C[C@@H]2COC[C@]2(c2nnc(C3CC3)o2)C1 | -9.55
c1cnc(NCc2noc3c2CN(C2CCOC2)CC3)nc1 (centres undefined) | -6.78
O=C(c1ccoc1)N1CCc2c(COCc3ccncc3)cncc2C1 | 8.95
CC(C)(C)C(=O)N1CCC2(CC1)CC(Oc1ccccc1)CO2 (centres undefined) | 11.5
Cc1ncnc2c1CCN(C(=O)c1ccsc1)CC2 | 7.97
Cc1ccc(C(=O)N2CCc3ncnc(C)c3CC2)o1 | 9.18
Cc1ccc(N2CCCc3sc(C(=O)NCc4ccncc4)nc32)nn1 | -1.89
CN1CCCc2sc(C(=O)NCc3cccnc3)nc21 | -10.4
O=C(NCc1cccnc1)c1nc2c(s1)CCCN2c1ncccn1 | 5.15
O=C(NCC1CC1)C1=NOC2(CCN(Cc3ccc(Cl)c(F)c3)C2)C1 (centres undefined) | -7.64
CCC(=O)N1CCC2(CC1)CC(Oc1ccccc1)CO2 (centres undefined) | -4.49
Cc1ncnc2c1CCN(C(=O)c1ccoc1)CC2 | -6.33
COCCNC(=O)c1nc2c(s1)CCCN2c1ccc(C)nn1 | 0.81
O=C(c1cccs1)N1CCC2(CC1)CC(Oc1ccccc1)CO2 (centres undefined) | -10.8
O=C(C1CCCCC1)N1CCC2(CC1)CNCc1ccccc12 | 0.691
CC(C)C(=O)N1CCC2(CC1)NC(=O)c1ccccc12 | -2.39
O=C(NCC1CCC2(CCNCC2)CO1)c1ccno1 (centres undefined) | 3.09
Cn1cnc2c(N3CCOCC3)nc(C3CCNCC3)cc21 | -1.78
CC(C)n1cnc2c(N3CCCC3)nc(C3CCNCC3)cc21 | 5.44
O=C([C@@H]1COC[C@H]2CN(CC3CC3)C[C@H]21)N1CCC(F)CC1 | 32.5
CC[C@@H]1N(CC2CCOCC2)CCC[C@]12CCC(=O)N2 | -6.16
Fc1ccccc1CO[C@@H]1C[C@H]2CN(c3ncccn3)CCN2C1 | 4.66
CN(C)Cc1cnc2n1CCN(C(=O)NC1CCCC1)CC2 | -1.58
